Where two headings read alike, the source gives them in different places.
Columns and labels:
Type in all cases: in vivo
[1] = test system: chickweed (Stellaria media); assay: Test B postemergence plant response; conditions: for Plant response rating, Chickweed: Postemergence
Summary of the method: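 Postemergence spray on 1- to 4-leaf plants (2–18 cm); greenhouse 13–15 d; visual rating vs controls, 0 = no effect, 100 = complete control; dash = not tested.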

[2] = test system: yellow nutsedge (Cyperus esculentus); assay: Test B pre-/postemergence plant response; conditions: for pest or weed control at 31 g/ha / pest or weed control at 62 g/ha: Cyperus, read-out: Plant response rating, Nutsedge, Yellow; for pest or weed control at 31 g/ha: 31 g ai/ha; for pest or weed control at 62 g/ha: 62 g ai/ha, 100 complete control
Summary of the method: (§1)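 Preemergence and postemergence (plants 2-18 cm, 1- to 4-leaf stage) applications used test chemicals in a non-phytotoxic solvent with surfactant. Plants were held in a greenhouse 13 to 15 days, then rated visually against controls on a 0-100 scale (0 no effect, 100 complete control).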

[3] = test system: bermudagrass (Cynodon dactylon); assay: Test B pre-/postemergence plant response; conditions: for pest or weed control at 31 g/ha: 31 g ai/ha; for pest or weed control at 62 g/ha: 62 g ai/ha, 100 complete control
Summary of the method: as §1

[4] = test system: cocklebur (Xanthium strumarium); assay: Test B pre-/postemergence plant response; conditions: for pest or weed control at 31 g/ha: 31 g ai/ha; for pest or weed control at 62 g/ha: 62 g ai/ha, 100 complete control
Summary of the method: as §1

[5] = test system: pigweed (Amaranthus retroflexus); assay: Test A pre-/postemergence plant response; conditions: Amaranthus retroflexus, 240 h, read-out: Plant response rating, Pigweed; for pest or weed control at 31 g/ha: 31 g ai/ha; for pest or weed control at 125 g/ha: 125 g ai/ha
Summary of the method: (§2)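 Ratings are visual, 0–100, where 100 means complete control and 0 no effect, taken roughly 10 days after treatment by comparison with untreated controls. Formulation: non-phytotoxic solvent mixture with surfactant.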

[6] = test system: wheat (Triticum aestivum); assay: Test A pre-/postemergence plant response; conditions: Triticum aestivum, 240 h, read-out: Plant response rating, Wheat; for plant injury at 31 g/ha: 31 g ai/ha; for plant injury at 125 g/ha: 125 g ai/ha
Summary of the method: as §2

[7] = test system: corn (Zea mays); assay: Test A pre-/postemergence plant response; conditions: Zea mays, 240 h; for Corn plant response rating (crop injury, 0 = no effect, 100 = complete kill) at 31 g/ha: 31 g ai/ha; for Corn plant response rating (crop injury, 0 = no effect, 100 = complete kill) at 125 g/ha: 125 g ai/ha
Summary of the method: as §2

[8] = test system: barnyardgrass (Echinochloa crus-galli); assay: Test A pre-/postemergence plant response; conditions: Echinochloa crus-galli, 240 h, read-out: Plant response rating, Barnyardgrass; for pest or weed control at 31 g/ha: 31 g ai/ha; for pest or weed control at 125 g/ha: 125 g ai/ha
Summary of the method: as §2

[9] = test system: large crabgrass (Digitaria sanguinalis); assay: Test A pre-/postemergence plant response; conditions: Digitaria sanguinalis, 240 h, read-out: Plant response rating, Crabgrass, Large; for pest or weed control at 31 g/ha: 31 g ai/ha; for pest or weed control at 125 g/ha: 125 g ai/ha
Summary of the method: as §2

[10] = test system: giant foxtail (Setaria faberi); assay: Test A pre-/postemergence plant response; conditions: Setaria faberi, 240 h, read-out: Plant response rating, Foxtail, Giant; for pest or weed control at 31 g/ha: 31 g ai/ha; for pest or weed control at 125 g/ha: 125 g ai/ha
Summary of the method: as §2

[11] = 8 g ai/ha, postemergence, 0-100 scale
[12] = Preemergence, 8 g ai/ha, scale 0 to 100 (0 no effect, 100 complete control)
[13] = Preemergence, 16 g ai/ha, scale 0 to 100
[14] = post-emergence, Postemergence, 0 to 100 scale (0 no effect, 100 complete control)
[15] = post-emergence, Postemergence, 0 to 100 scale, 0 no effect, 100 complete control
[16] = pre-emergence, Preemergence, 0 to 100 scale, 0 is no effect, 100 is complete control
[17] = pre-emergence, Preemergence, 0 to 100 scale (0 no effect, 100 complete control)

Cc1cc(-c2ccc(Br)cc2)nn1-c1c(O)cn[nH]c1=O [Compound 78, 4-[3-(4-bromophenyl)-5-methyl-1H-pyrazol-1-yl]-5-hydroxy-3(2H)-pyridazinone]
Chickweed plant response rating [1, 11]: 0
Plant response rating, Chickweed ([1]; 16 g ai/ha, scale 0 to 100): 0
Plant response rating, Chickweed ([1]; 31 g ai/ha, scale 0 to 100): 0
Plant response rating, Chickweed ([1]; 62 g ai/ha, scale 0 to 100, 0 no effect, 100 complete control): 0
Nutsedge, Yellow plant response rating [2, 11]: 0
Nutsedge, Yellow plant response rating ([2]; 16 g ai/ha, postemergence, 0-100 scale): 0
pest or weed control at 31 g/ha ([2]; post-emergence, Postemergence, scale 0 to 100): 0%
pest or weed control at 62 g/ha ([2]; post-emergence, Postemergence, scale 0 to 100, 0 no effect): 0%
pest or weed control at 31 g/ha ([2]; pre-emergence, Preemergence, scale 0 to 100 (0 no effect, 100 complete control)): 0%
pest or weed control at 62 g/ha ([2]; pre-emergence, Preemergence, 0 to 100 scale, 0 no effect): 0%
Nutsedge, Yellow plant response rating [2, 12]: 0
Nutsedge, Yellow plant response rating [2, 13]: 0
Bermudagrass plant response rating [3, 11]: 80
pest or weed control at 16 g/ha ([3]; Cynodon dactylon, post-emergence, Postemergence, 16 g ai/ha, scale 0 to 100, read-out: Plant response rating, Bermudagrass): 98%
pest or weed control at 31 g/ha ([3]; Cynodon dactylon, post-emergence, Postemergence, scale 0 to 100, read-out: Plant response rating, Bermudagrass): 100%
pest or weed control at 62 g/ha ([3]; Cynodon dactylon, post-emergence, Postemergence, scale 0 to 100, 0 no effect, read-out: Plant response rating, Bermudagrass): 100%
pest or weed control at 31 g/ha ([3]; Cynodon dactylon, pre-emergence, Preemergence, scale 0 to 100 (0 no effect, 100 complete control), read-out: Plant response rating, Bermudagrass): 100%
pest or weed control at 62 g/ha ([3]; Cynodon dactylon, pre-emergence, Preemergence, 0 to 100 scale, 0 no effect, read-out: Plant response rating, Bermudagrass): 100%
Bermudagrass plant response rating [3, 12]: 85
Bermudagrass plant response rating ([3]; Preemergence, 16 g ai/ha, scale 0 to 100 (0 no effect, 100 complete control)): 100
Cocklebur plant response rating [4, 11]: 0
Cocklebur plant response rating [4, 12]: 0
Cocklebur plant response rating [4, 13]: 0
pest or weed control at 16 g/ha ([4]; Xanthium strumarium, post-emergence, Postemergence, 16 g ai/ha, scale 0 to 100, read-out: Plant response rating, Cocklebur): 0%
pest or weed control at 31 g/ha ([4]; Xanthium strumarium, post-emergence, Postemergence, scale 0 to 100, read-out: Plant response rating, Cocklebur): 0%
pest or weed control at 62 g/ha ([4]; Xanthium strumarium, post-emergence, Postemergence, scale 0 to 100, 0 no effect, read-out: Plant response rating, Cocklebur): 0%
pest or weed control at 31 g/ha ([4]; Xanthium strumarium, pre-emergence, Preemergence, scale 0 to 100 (0 no effect, 100 complete control), read-out: Plant response rating, Cocklebur): 0%
pest or weed control at 62 g/ha ([4]; Xanthium strumarium, pre-emergence, Preemergence, 0 to 100 scale, 0 no effect, read-out: Plant response rating, Cocklebur): 0%
pest or weed control at 31 g/ha [5, 14]: 0%
pest or weed control at 125 g/ha [5, 15]: 0%
pest or weed control at 31 g/ha [5, 16]: 0%
pest or weed control at 125 g/ha [5, 17]: 0%
plant injury at 31 g/ha [6, 14]: 70%
plant injury at 125 g/ha [6, 15]: 90%
plant injury at 31 g/ha [6, 16]: 0%
plant injury at 125 g/ha [6, 17]: 90%
Corn plant response rating (crop injury, 0 = no effect, 100 = complete kill) at 31 g/ha [7, 14]: 60%
Corn plant response rating (crop injury, 0 = no effect, 100 = complete kill) at 125 g/ha [7, 15]: 100%
Corn plant response rating (crop injury, 0 = no effect, 100 = complete kill) at 31 g/ha [7, 16]: 0%
Corn plant response rating (crop injury, 0 = no effect, 100 = complete kill) at 125 g/ha [7, 17]: 90%
pest or weed control at 31 g/ha [8, 14]: 90%
pest or weed control at 125 g/ha [8, 15]: 100%
pest or weed control at 31 g/ha [8, 16]: 0%
pest or weed control at 125 g/ha [8, 17]: 100%
pest or weed control at 31 g/ha [9, 14]: 80%
pest or weed control at 125 g/ha [9, 15]: 100%
pest or weed control at 31 g/ha [9, 16]: 10%
pest or weed control at 125 g/ha [9, 17]: 100%
pest or weed control at 31 g/ha [10, 14]: 80%
pest or weed control at 125 g/ha [10, 15]: 100%
pest or weed control at 31 g/ha [10, 16]: 20%
pest or weed control at 125 g/ha [10, 17]: 100%
